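Protocol summary: plate cells (96-well), add compound at 5 concentrations, incubate 48 h, interpolate endpoints linearly. GI50: concentration for 50% inhibition of growth. TGI: total growth inhibition.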
How the values were obtained:
Assay in all cases: inhibition of tumour cell growth, NCI panel, 48 h
[1] = tested on: DU-145 prostate
[2] = tested on: MALME-3M melanoma
[3] = tested on: HCT-15 colon
[4] = tested on: SR leukemia
[5] = tested on: SK-MEL-28 melanoma
[6] = tested on: PC-3 prostate
[7] = tested on: RPMI-8226 leukemia
[8] = tested on: SK-MEL-2 melanoma
[9] = tested on: MOLT-4 leukemia
[10] = tested on: UACC-62 melanoma

Row | SMILES | GI50 [1] | TGI [1] | TGI [2] | GI50 [3] | TGI [3] | GI50 [4] | TGI [4] | GI50 [5] | TGI [5] | GI50 [6] | TGI [6] | GI50 [7] | TGI [7] | GI50 [8] | TGI [8] | GI50 [9] | TGI [9] | GI50 [10] | TGI [10] | GI50 [2]
1 | COc1ccc(/C=N/C2=C(C#N)C(c3ccccc3)c3ccc4ccccc4c3O2)cc1 (centres undefined) | 0.428 µM | > 100 µM | > 100 µM | 0.509 µM | > 100 µM | 0.304 µM | > 75.8 µM | 1.37 µM | > 100 µM | 0.393 µM | > 100 µM | 0.383 µM | > 38 µM | 0.545 µM | > 100 µM | 0.516 µM | > 100 µM | 0.491 µM | > 100 µM | –
2 | C/C(=N\O)c1ccc(Nc2cc(-c3ccccc3)nc3c(O)cccc23)cc1 | 13.5 µM | 28.5 µM | 30.3 µM | 4.75 µM | 26.4 µM | 1.27 µM | 24.1 µM | 14.5 µM | 32.3 µM | 17.1 µM | 41.9 µM | 4.5 µM | 30.8 µM | 17.3 µM | 36.8 µM | – | – | 13.4 µM | 27.1 µM | 16.1 µM
3 | COc1ccc2c(c1)cn1c3ccc(OC)cc3[nH]c(=O)c21 | < 0.0217 µM | – | 2.75 µM | < 0.0177 µM | 1.11 µM | < 0.01 µM | 1.1 µM | < 0.0285 µM | 2.15 µM | < 0.0154 µM | 1.59 µM | 0.0253 µM | 0.0984 µM | 0.0574 µM | 1.66 µM | < 0.0183 µM | 1.04 µM | < 0.0174 µM | 1.39 µM | –
4 | CN(Cc1cccc(Cl)c1)c1ccc(CO)c(Cl)c1 | 21 µM | > 51.1 µM | 42.3 µM | 16.1 µM | > 76.7 µM | 22.4 µM | 72.8 µM | 16.4 µM | 43.9 µM | 18 µM | > 54.3 µM | 12.2 µM | 55 µM | 9.88 µM | 27.4 µM | 20 µM | 56.6 µM | 0.321 µM | 3.75 µM | 18.7 µM
5 | COc1ccc(-n2cc(-c3ccc(F)cc3)[nH]c2=O)cc1OC | > 100 µM | > 100 µM | > 100 µM | > 100 µM | > 100 µM | > 100 µM | > 100 µM | > 100 µM | > 100 µM | > 100 µM | > 100 µM | > 100 µM | > 100 µM | > 100 µM | > 100 µM | > 100 µM | > 100 µM | > 100 µM | > 100 µM | > 100 µM
6 | Nc1nc(-c2ccccc2Cl)cc(-c2ccc(Cl)cc2Cl)n1 | 5.33 µM | 70.1 µM | > 100 µM | 5.09 µM | > 100 µM | 4.1 µM | > 100 µM | 20.9 µM | > 100 µM | 5.43 µM | > 100 µM | 3.1 µM | 17.6 µM | 6.1 µM | 44.8 µM | 4.82 µM | > 100 µM | 5.93 µM | 44.2 µM | 17.7 µM
7 | COc1cc(/C=C/C(=O)c2ccc(SC)cc2)cc(OC)c1OC | 12.8 µM | 26.4 µM | 26.1 µM | 3.6 µM | 14.4 µM | 3.56 µM | > 100 µM | 16.9 µM | 32.5 µM | 14.2 µM | 95.3 µM | 3.9 µM | > 100 µM | 17 µM | 31.6 µM | 3.14 µM | 8.65 µM | 3.46 µM | 13.5 µM | 6.31 µM
8 | COc1ccc(S(=O)(=O)Nc2c(/C=C\c3cc(OC)c(OC)c(OC)c3)ccc(OC)c2O)cc1OC | 0.388 µM | > 100 µM | > 100 µM | 0.308 µM | > 100 µM | 0.0661 µM | > 75.9 µM | 1.74 µM | > 100 µM | 0.244 µM | > 100 µM | 0.413 µM | > 61 µM | 2.05 µM | > 100 µM | 0.44 µM | > 100 µM | 0.053 µM | > 100 µM | > 100 µM
9 | C=C(C=O)[C@@H]1CC=C(C=O)CC1 | 3.44 µM | 11.2 µM | > 26 µM | 2.4 µM | 10.1 µM | 5.48 µM | > 100 µM | 2.43 µM | 5.87 µM | 4.12 µM | 24.2 µM | 2.14 µM | 6.63 µM | 25.6 µM | 92.5 µM | 3.69 µM | > 100 µM | 3.14 µM | 12.2 µM | 4.39 µM
10 | Cc1cnc2n(c1=O)Cc1ccccc1CO2 | 16.6 µM | 32.1 µM | 44.9 µM | 17.1 µM | 33.8 µM | 9.11 µM | 27.9 µM | 20.9 µM | 45.1 µM | 18.7 µM | 43.7 µM | 13.1 µM | 41 µM | 0.568 µM | 2.04 µM | 18.3 µM | 39.3 µM | 14.7 µM | 28.7 µM | 19.8 µM
11 | Nc1c2c(c(O)c3c1=C(CO)C=N3)=NCCS2=O (centres undefined) | 1.54 µM | 2.87 µM | 0.739 µM | 2.99 µM | 10.6 µM | 1.76 µM | 9.33 µM | – | – | 2.19 µM | 6.13 µM | 3.29 µM | 13.5 µM | 1.45 µM | 3.8 µM | 1.24 µM | 4.22 µM | 1.71 µM | 3.39 µM | 0.253 µM
12 | COc1cc(-c2cc(C(=O)N3CCN(C(=O)c4ccccc4NCc4cccs4)CC3)nc3cc(-c4ccccc4)nn23)cc(OC)c1OC | 5 µM | 40.6 µM | > 100 µM | 4.43 µM | > 100 µM | 3.31 µM | > 100 µM | 9.62 µM | > 100 µM | 4.18 µM | > 100 µM | – | – | 3.73 µM | 15.6 µM | 43.7 µM | > 100 µM | 2.8 µM | > 100 µM | > 100 µM
13 | O=C(Nc1ccc(-n2cc(-c3ccncc3)c(-c3ccc(Cl)c(O)c3)n2)cc1)c1ccc(Cl)c(C(F)(F)F)c1 | 2.7 µM | > 20.3 µM | – | 0.444 µM | 2.58 µM | 1.37 µM | > 26.2 µM | 1.18 µM | 3.6 µM | 1.15 µM | 30.8 µM | 0.426 µM | 2.68 µM | 1.61 µM | 4.69 µM | 0.652 µM | > 29.3 µM | 2.21 µM | 7.6 µM | –

From PubChem BioAssay (NCI)
